Laboratory results as given in the CheMixHub viscosity set.

Experiment: xn = mol fraction of the nth substance listed

COCCOCCOC + C1CCCCC1
viscosity [mPa·s], 101.33 kPa
Settings | x1 = 0.0981 | x1 = 0.1885 | x1 = 0.2854 | x1 = 0.3996 | x1 = 0.5024 | x1 = 0.6005 | x1 = 0.7027 | x1 = 0.8014 | x1 = 0.898
298.15 K | 0.794 | 0.765 | 0.76 | 0.769 | 0.785 | 0.808 | 0.843 | 0.882 | 0.924
303.15 K | 0.734 | 0.706 | 0.702 | 0.714 | 0.73 | 0.751 | 0.779 | 0.813 | 0.851
308.15 K | 0.677 | 0.654 | 0.653 | 0.65 | 0.679 | 0.697 | 0.725 | 0.756 | 0.792

CO/N=C(\C(=O)N[C@@H]1C(=O)N2C(C(=O)[O-])=C(CSc3nc(=O)c(=O)[n-]n3C)CS[C@H]12)c1csc(N)n1.[Na+].[Na+] + O
viscosity [mPa·s], 100 kPa
Settings | 293.15 K | 298.15 K | 303.15 K | 308.15 K | 313.15 K
x1 = 9e-05 | 1.012 | 0.8968 | 0.8033 | 0.7267 | 0.6584
x1 = 0.00018 | 1.016 | 0.9026 | 0.807 | 0.7308 | 0.6615
x1 = 0.000349 | 1.053 | 0.935 | 0.829 | 0.744 | –
x1 = 0.000873 | 1.12 | 0.994 | 0.885 | 0.794 | –
x1 = 0.0009 | 1.03 | 0.9163 | 0.8185 | 0.7413 | 0.6726
x1 = 0.00139 | 1.2 | 1.062 | 0.945 | 0.849 | –
x1 = 0.002501 | 1.399 | 1.231 | 1.1 | 0.982 | –
x1 = 0.003119 | 1.527 | 1.348 | 1.195 | 1.07 | –
x1 = 0.003887 | 1.701 | 1.495 | 1.323 | 1.184 | –
x1 = 0.004766 | 1.918 | 1.674 | 1.48 | 1.322 | –
x1 = 0.005482 | 2.122 | 1.858 | 1.638 | 1.455 | –

COCCOCCOC + CC(C)(C)O
viscosity [mPa·s], 101 kPa
Settings | x1 = 0.1032 | x1 = 0.2054 | x1 = 0.3014 | x1 = 0.4031 | x1 = 0.5025 | x1 = 0.6046 | x1 = 0.7072 | x1 = 0.8058 | x1 = 0.8973
298.15 K | 2.377 | 1.768 | 1.453 | 1.259 | 1.146 | 1.073 | 1.032 | 1.008 | 0.995
303.15 K | 1.954 | 1.523 | 1.274 | 1.123 | 1.033 | 0.974 | 0.943 | 0.921 | 0.915
308.15 K | 1.625 | 1.319 | 1.13 | 1.009 | 0.937 | 0.888 | 0.864 | 0.852 | 0.844

Oc1ccccc1 + Cc1cccc(O)c1
298.15 K, 101 kPa
Settings | viscosity [mPa·s]
x1 = 0.1259 | 12.5
x1 = 0.2449 | 11.69
x1 = 0.3137 | 11.31
x1 = 0.3848 | 10.95
x1 = 0.4502 | 10.7
x1 = 0.5174 | 10.4
x1 = 0.6352 | 9.961
x1 = 0.7325 | 9.698
x1 = 0.819 | 9.398
x1 = 0.8921 | 9.206
x1 = 0.9301 | 9.105

CCCCCCn1cc[n+](C)c1.F[B-](F)(F)F + CC(C)O
101 kPa
Settings | viscosity [mPa·s]
293.15 K, x1 = 0.7711 | 78.36
313.15 K, x1 = 0.08354 | 1.965
323.15 K, x1 = 0.238 | 3.035
323.15 K, x1 = 0.8507 | 28.15

COC[N+]1(C)CCCC1.O=S(=O)([N-]S(=O)(=O)C(F)(F)F)C(F)(F)F + O
101 kPa, x2 = 0.1527
Settings | viscosity [mPa·s]
293.15 K | 35.2
298.15 K | 29.4
303.15 K | 24.8
313.15 K | 18.1
323.15 K | 13.8

COCCOCCOC + ClC(Cl)(Cl)Cl
298.15 K, 101.33 kPa
Settings | viscosity [mPa·s]
x1 = 0.0934 | 0.965
x1 = 0.1967 | 0.995
x1 = 0.3018 | 1.023
x1 = 0.4053 | 1.044
x1 = 0.4892 | 1.059
x1 = 0.5352 | 1.06
x1 = 0.592 | 1.057
x1 = 0.6503 | 1.052
x1 = 0.6902 | 1.043
x1 = 0.7963 | 1.031
x1 = 0.8656 | 1.019
x1 = 0.9021 | 1.011
x1 = 0.9343 | 1.001

CCCCCCN + COCCO
308.15 K, 101 kPa
Settings | viscosity [mPa·s]
x2 = 0.1567 | 0.8278
x2 = 0.2965 | 1.059
x2 = 0.4194 | 1.245
x2 = 0.5291 | 1.381
x2 = 0.6276 | 1.456
x2 = 0.7166 | 1.459
x2 = 0.7973 | 1.434
x2 = 0.8708 | 1.397
x2 = 0.9382 | 1.338

CNc1ccccc1 + CS(C)=O
303 K, 101.33 kPa
Settings | viscosity [mPa·s]
x1 = 0.101 | 1.844
x1 = 0.2001 | 1.861
x1 = 0.3007 | 1.939
x1 = 0.3986 | 2.046
x1 = 0.4987 | 2.03
x1 = 0.6003 | 2.106
x1 = 0.6987 | 2.12
x1 = 0.8007 | 2.057
x1 = 0.9015 | 1.911

COCCOCCOC + CCCCCCCCCCCCCC
viscosity [mPa·s], 101.33 kPa
Settings | x1 = 0.0987 | x1 = 0.2023 | x1 = 0.302 | x1 = 0.4002 | x1 = 0.5033 | x1 = 0.594 | x1 = 0.6981 | x1 = 0.7958 | x1 = 0.8986
298.15 K | 1.835 | 1.672 | 1.55 | 1.448 | 1.345 | 1.275 | 1.187 | 1.113 | 1.044
308.15 K | 1.503 | 1.38 | 1.29 | 1.205 | 1.122 | 1.068 | 0.996 | 0.938 | 0.888
318.15 K | 1.248 | 1.153 | 1.07 | 1.009 | 0.945 | 0.902 | 0.848 | 0.8 | 0.76

N#CCCO + CC#N
298 K, 101 kPa
Settings | viscosity [mPa·s]
x1 = 0.1342 | 0.466
x1 = 0.2793 | 0.689
x1 = 0.4366 | 0.906
x1 = 0.6079 | 1.358
x1 = 0.7949 | 2.144

CNc1ccccc1 + CCCO
viscosity [mPa·s], 101.33 kPa
Settings | x1 = 0.1008 | x1 = 0.1995 | x1 = 0.2999 | x1 = 0.4015 | x1 = 0.5012 | x1 = 0.6016 | x1 = 0.7016 | x1 = 0.8003 | x1 = 0.9016
303.15 K | 1.608 | 1.532 | 1.502 | 1.494 | 1.502 | 1.527 | 1.551 | 1.61 | 1.688
308.15 K | 1.433 | 1.37 | 1.345 | 1.337 | 1.347 | 1.368 | 1.392 | 1.446 | 1.512
313.15 K | 1.29 | 1.235 | 1.21 | 1.204 | 1.219 | 1.235 | 1.26 | 1.306 | 1.347
318.15 K | 1.161 | 1.116 | 1.096 | 1.092 | 1.097 | 1.123 | 1.145 | 1.188 | 1.247
323.15 K | 1.051 | 1.01 | 1 | 0.9995 | 1.012 | 1.026 | 1.047 | 1.091 | 1.142
